Data: article PMC10101059, “Rational Design of Stapled Antimicrobial Peptides to Enhance Stability and In Vivo Potency against Polymicrobial Sepsis” (Microbiology Spectrum, 2023)
≈ marks a conversion by molar mass, not a printed value. Where two headings read alike, the source gives them in different places. Bridge positions count the residues as written; N and C are the ends. Square brackets hold non-standard residues; d marks the D form. Peptide text beside a SMILES is read from it. R5 = C=CCCC[C@@](C)(N)C(=O)O

Key:
Escherichia coli = experiment: microbe, parasite or virus in culture; type: cell-based
Protocol: (§1) The antimicrobial assay was performed according to a modified National Committee for Clinical Laboratory Standards (NCCLS) protocol ([41], [42]). Briefly, 5 × 10^5 CFU/mL bacterial cells were treated with various peptide concentrations and incubated at 37 ± 2°C for 16 to 20 h. The lowest concentration with clear wells was recorded as the MIC for each test molecule. The clear wells were further plated in Mueller-Hinton agar (MHA) plates, followed by incubation overnight at 37 ± 2°C. After plating, the lowest concentration at which no growth was observed was recorded as the MBC. For the serum sensitivity assay, the antimicrobial activity of the peptides was tested in medium containing 50% human serum ([43], [44]).

Enterobacter aerogenes = experiment: microbe, parasite or virus in culture; type: cell-based
Protocol: as §1

[1] = test system: NDM-1 Klebsiella pneumoniae; experiment: microbe, parasite or virus in culture; type: cell-based; conditions: NDM-1
Protocol: as §1

Pseudomonas aeruginosa = experiment: microbe, parasite or virus in culture; type: cell-based
Protocol: as §1

Staphylococcus aureus = type: cell-based
Protocol: as §1

Acinetobacter baumannii = experiment: microbe, parasite or virus in culture; type: cell-based
Protocol: as §1, with “[44]). The antimicrobial assay was performed in the presence of physiological ions and glucose. The test media were supplemented with MgCl2 (1 mM), CaCl2 (2 mM), NaCl (150 mM), KCl (4.5 mM), NH4Cl (6 μM) ([45], [46]), or glucose (0.2%) ([47]), followed by routine antimicrobial assay as described previously. For the pH sensitivity assay, the antimicrobial assay was performed in media adjusted to pH values ranging from 4 to 12. To estimate the effects of temperature on antimicrobial activity, the peptide was incubated for 1 h at temperatures ranging from 40 to 100°C ([48]), followed by the antimicrobial assay as described above.” for “[44]).”

MDR A. baumannii 3618 = experiment: microbe, parasite or virus in culture; type: cell-based, Acinetobacter baumannii; conditions: MDR 3618
Protocol: as §1

MDR A. baumannii 2962 = experiment: microbe, parasite or virus in culture; type: cell-based, Acinetobacter baumannii; conditions: MDR 2962
Protocol: as §1

MDR A. baumannii 1019 = experiment: microbe, parasite or virus in culture; type: cell-based, Acinetobacter baumannii; conditions: MDR 1019
Protocol: as §1

MDR A. baumannii 2997 = experiment: microbe, parasite or virus in culture; type: cell-based, Acinetobacter baumannii; conditions: MDR 2997
Protocol: as §1

MDR A. baumannii 1607 = experiment: microbe, parasite or virus in culture; type: cell-based, Acinetobacter baumannii; conditions: MDR 1607
Protocol: as §1

MDR A. baumannii 921 = experiment: microbe, parasite or virus in culture; type: cell-based, Acinetobacter baumannii; conditions: MDR 921
Protocol: as §1

MDR A. baumannii 2982 = experiment: microbe, parasite or virus in culture; type: cell-based, Acinetobacter baumannii; conditions: MDR 2982
Protocol: as §1

MDR A. baumannii 2088 = experiment: microbe, parasite or virus in culture; type: cell-based, Acinetobacter baumannii; conditions: MDR 2088
Protocol: as §1

MDR A. baumannii 2998 = experiment: microbe, parasite or virus in culture; type: cell-based, Acinetobacter baumannii; conditions: MDR 2998
Protocol: as §1

MDR A. baumannii 1033 = experiment: microbe, parasite or virus in culture; type: cell-based, Acinetobacter baumannii; conditions: MDR 1033
Protocol: as §1

MDR A. baumannii 1702 = experiment: microbe, parasite or virus in culture; type: cell-based, Acinetobacter baumannii; conditions: MDR 1702
Protocol: as §1

MDR A. baumannii 14B0091 = experiment: microbe, parasite or virus in culture; type: cell-based, Acinetobacter baumannii; conditions: MDR 14B0091
Protocol: as §1

human red blood cells = type: cell-based
Protocol: The hemolytic assay was performed after approval from the institutional ethics committee (Academia Sinica Institutional Review Board [IRB]; ID no. AS-IRB02-111075). Blood was collected from healthy humans, and 50 μL of a 2% blood cell suspension in normal saline was treated with an equal volume of peptide at different concentrations. The mixture was then incubated at 37 ± 2°C for 1 h. Next, the cell suspension was centrifuged at 1,000 × g for 10 min. Percent hemolysis was estimated by the absorbance of treated and control supernatant samples at 540 nm ([23], [44]).

Molecule `CC[C@H](C)[C@H](NC(=O)[C@H](C)NC(=O)[C@H](CCCCN)NC(=O)CNC(=O)[C@H](C)NC(=O)[C@H](CO)NC(=O)[C@H](Cc1ccccc1)NC(=O)[C@H](CC(C)C)NC(=O)CNC(=O)CNC(=O)[C@@H](NC(=O)[C@@H](NC(=O)[C@H](Cc1c[nH]cn1)NC(=O)[C@H](Cc1c[nH]cn1)NC(=O)[C@@H](NC(=O)[C@@H](N)Cc1ccccc1)[C@@H](C)CC)[C@@H](C)CC)[C@@H](C)CC)C(=O)N[C@@H](Cc1c[nH]cn1)C(=O)N[C@@H](CCCNC(=N)N)C(=O)N[C@@H](CC(C)C)C(=O)N[C@H](C(=O)N[C@@H](CCCNC(=N)N)C(=O)N[C@@H](CCCNC(=N)N)C(=O)N[C@@H](CCCNC(=N)N)C(=O)N[C@@H](CCCNC(=N)N)C(=O)N[C@@H](CCCNC(=N)N)C(=O)O)[C@@H](C)CC` [TP4, tilapia piscidin 4] (H-FIHHIIGGLFSAGKAIHRLIRRRRR-OH) has an MBC (Escherichia coli) of 3.13 µM (≈ 9.33 µg/mL), an MIC (Escherichia coli) of 3.13 µM (≈ 9.33 µg/mL) and an MBC (Enterobacter aerogenes) of 0.78 µM (≈ 2.33 µg/mL). The MIC (Enterobacter aerogenes) was 0.78 µM (≈ 2.33 µg/mL), the MBC [1] was 6.25 µM (≈ 18.6 µg/mL) and the MIC [1] was 6.25 µM (≈ 18.6 µg/mL). For the same molecule, the MBC (Pseudomonas aeruginosa; read-out: MBC) was 12.5 µM (≈ 37.3 µg/mL), the MIC (Pseudomonas aeruginosa; read-out: MIC) was 12.5 µM (≈ 37.3 µg/mL) and the MBC (Staphylococcus aureus) was 1.56 µM (≈ 4.65 µg/mL). The MIC (Staphylococcus aureus) was 1.56 µM (≈ 4.65 µg/mL), the MBC (Acinetobacter baumannii; pH 6) was 3.13−6.25 μM and the MIC (Acinetobacter baumannii; pH 6) was 3.13−6.25 μM. The MBC (Acinetobacter baumannii; pH 7.4, read-out: MBC) was 3.13 µM (≈ 9.33 µg/mL), the MIC (Acinetobacter baumannii; pH 7.4, read-out: MIC) was 3.13 µM (≈ 9.33 µg/mL) and the MBC (Acinetobacter baumannii; pH 8) was 1.56−3.13 μM. The MIC (Acinetobacter baumannii; pH 8) was 1.56−3.13 μM, the MBC (Acinetobacter baumannii; pH 10, read-out: MBC) was 0.78 µM (≈ 2.33 µg/mL) and the MIC (Acinetobacter baumannii; pH 10, read-out: MIC) was 0.78 µM (≈ 2.33 µg/mL). The MBC (MDR A. baumannii 3618) was 6.25 µM (≈ 18.6 µg/mL), the MIC (MDR A. baumannii 3618) was 3.13 µM (≈ 9.33 µg/mL) and the MBC (MDR A. baumannii 2962) was less than 1.56 µM. The MIC (MDR A. baumannii 2962) was less than 1.56 µM, the MBC (MDR A. baumannii 1019) was less than 1.56 µM and the MIC (MDR A. baumannii 1019) was less than 1.56 µM. It also gave an MBC (MDR A. baumannii 2997; read-out: MBC) of less than 1.56 µM, an MIC (MDR A. baumannii 2997; read-out: MIC) of less than 1.56 µM and an MIC (MDR A. baumannii 1607) of less than 1.56 µM. For the same molecule, the MBC (MDR A. baumannii 1607; read-out: MBC) was less than 1.56 µM, the MBC (MDR A. baumannii 921) was less than 1.56 µM and the MIC (MDR A. baumannii 921) was less than 1.56 µM. The MBC (MDR A. baumannii 2982) was 3.13 µM (≈ 9.33 µg/mL), the MIC (MDR A. baumannii 2982) was 3.13 µM (≈ 9.33 µg/mL) and the MBC (MDR A. baumannii 2088; read-out: MBC) was less than 1.56 µM. It also gave an MIC (MDR A. baumannii 2088; read-out: MIC) of less than 1.56 µM, an MIC (MDR A. baumannii 2998) of less than 1.56 µM and an MBC (MDR A. baumannii 2998; read-out: MBC) of less than 1.56 µM. The MBC (MDR A. baumannii 1033; read-out: MBC) was 6.25 µM (≈ 18.6 µg/mL), the MIC (MDR A. baumannii 1033; read-out: MIC) was less than 1.56 µM and the MBC (MDR A. baumannii 1702; read-out: MBC) was less than 1.56 µM. For the same molecule, the MIC (MDR A. baumannii 1702; read-out: MIC) was less than 1.56 µM, the MBC (MDR A. baumannii 14B0091) was less than 1.56 µM and the MIC (MDR A. baumannii 14B0091) was less than 1.56 µM.
`CC[C@H](C)[C@H](NC(=O)[C@@H](NC(=O)[C@@H](NC(=O)[C@@H](N)Cc1ccccc1)[C@@H](C)CC)[C@@H](C)CC)C(=O)N[C@@H](CCCCN)C(=O)N[C@@H](CCCCN)C(=O)N[C@@H](CO)C(=O)NCC(=O)NCC(=O)N[C@@H](CC(C)C)C(=O)N[C@@H](Cc1ccccc1)C(=O)N[C@@H](CCCCN)C(=O)N[C@@H](CCCCN)C(=O)N[C@@H](CCCCN)C(=O)N[C@@H](C)C(=O)NCC(=O)N[C@@H](C)C(=O)N[C@]1(C)CCCC=CCCC[C@](C)(C(=O)N[C@H](C(=O)N[C@@H](CCCCN)C(=O)N[C@@H](CCCCN)C(=O)O)[C@@H](C)CC)NC(=O)[C@H](CCCCN)NC(=O)[C@H](CCCCN)NC(=O)[C@H](CCCCN)NC1=O` [TP4-1] (H-FIIIKKSGGLFKKKAGA[R5]KKK[R5]IKK-OH; staple 18-22; N-terminus and C-terminus assumed) showed an MBC (Staphylococcus aureus) greater than 25 µM, an MIC (Staphylococcus aureus) greater than 25 µM and an MBC (Acinetobacter baumannii; read-out: MBC) greater than 25 µM. It also gave an MIC (Acinetobacter baumannii; read-out: MIC) greater than 25 µM and a 15% hemolysis concn (human red blood cells) greater than 100 µM.
